“Also recorded” adds a separate entry of the source.
Assays:
human islets [1] = experiment: in vitro perifusion, glucagon secretion from human islets; type: cell-based; conditions: for effect on basal glucagon secretion or glucagon responses to glutamate: 100 μM
Description: (§3) A high-capacity, automated perifusion system was developed to dynamically measure hormone secretion from pancreatic islets. A low pulsatility peristaltic pump pushed HEPES-buffered solution (mM: 125 NaCl, 5.9 KCl, 2.56 CaCl2, 1 MgCl2, 25 HEPES, and 0.1% BSA; pH 7.4; and a perifusion rate of 100 μL/min) through a column containing 100 pancreatic islets immobilized in Bio-Gel P-4 Gel (BioRad, Hercules, Calif.). Except otherwise stated, glucose concentration was adjusted to 3 mM for all experiments. Stimuli were applied with the perifusion buffer. The perifusate was collected in an automatic fraction collector designed for a 96 well plate format. The columns containing the islets and the perifusion solutions were kept at 37° C., and the perifusate in the collecting plate was kept at <4° C. Perifusates were collected every minute. Hormone release in the perifusate was determined with the human or mouse Endocrine LINCOplex Kit following manufacturer's instructions (Linco research, St. Charles, Mo.).

mouse islets [2] = experiment: perifusion, glucagon secretion from mouse islets; type: cell-based, mouse (C57Bl/6)
Description: as §3

C57BL/6 mice = experiment: in vivo responses to iGluR agonists injected i.p.; set-up: species or system mouse
Description: (§1) We examined in vivo responses to iGluR agonists by injecting C57BL/6 mice i.p. with either PBS (n=4), monosodium glutamate (30 mg/kg; n=7), or AMPA (15 mg/kg; n=8). To determine whether blocking iGluRs exacerbates insulin-induced hypoglycemia, we injected the AMPA/kainate iGluR antagonist NBQX (Tocris, Ellisville, Mo.) i.p. at 20 mg/kg 30 minutes before mice were treated with insulin to induce hypoglycemia.

human islets [3] = experiment: in vitro perifusion, insulin release from human islets; conditions: 100 μM
Description: as §3

monkey islets [4] = experiment: in vitro perifusion, insulin release from monkey islets; conditions: 100 μM; not shown
[5] = test system: human islets and dispersed single islet cells; experiment: [Ca^2+]i imaging (Fura-2) of human islets and dispersed islet cells; type: cell-based; conditions: CNQX 10 μM
Description: (§2) Glucose was added to give a final concentration of 3 mM. Islets or dispersed islet cells were incubated in Fura-2 AM (2 μM; 1 hour) and placed in a closed small-volume imaging chamber (Warner Instruments, Hamden, Conn.). Stimuli were applied with the bathing solution. Islets loaded with Fura-2 were excited alternatively at 340 and 380 nm with a monochromator light source (Cairn. Research Optoscan Monochromator, Cairn Research Ltd, Faversham, UK). Images were acquired with a Hamamatsu camera (Hamamatsu Corp, Japan) attached to a Zeiss Axiovert 200 microscope (Carl Zeiss, Jena, Germany). Changes in the 340/380 fluorescence emission ratio over time were analyzed in individual islets and dispersed cells using Kinetic Imaging AQM Advance software (Kinetic Imaging, N.C.). Peak changes in the fluorescence ratio constituted the response amplitude.

[6] = test system: monkey islets and dispersed single islet cells; experiment: [Ca^2+]i imaging (Fura-2) of monkey islets and islet cells; type: cell-based, monkey (Macacca fascicularis); conditions: nifedipine 10 μM; for inhibition of [Ca^2+]i responses to kainate: CNQX 10 μM, La^3+ 30 μM
Description: as §2, with “Imaging of [Ca^2+]i was performed as described elsewhere (Cabrera et al., 2006). […] Glucose” for “Glucose”

human islets [7] = type: cell-based; conditions: CNQX 10 μM; measured at 8 minutes after reducing glucose
Description: Perifusion of the islets was stopped after addition of the stimulus to allow the islet secretory products to accumulate and then resumed after 10 minutes.

monkey islets [8] = experiment: microfluorometric determination of endogenous glutamate release from islets; type: cell-based; conditions: kainate 100 μM; KCl 30 mM
Description: Endogenous glutamate release from pancreatic islets was measured with the Amplex Red Glutamic Acid Assay Kit (Molecular Probes) adapted for microscopic microfluorometric detection (Akagi et al., 2003). In this assay, released glutamate is a substrate in an enzymatic chain reaction that generates the highly fluorescent product resorufin (Molecular Probes, Eugene, Oreg.). L-glutamate is oxidized by glutamate oxidase to produce α-ketoglutarate, NH4, and H2O2. Hydrogen peroxide reacts with the Amplex Red reagent in a reaction catalyzed by horseradish peroxidase to generate resorufin. Pancreatic islets were allowed to attach to a glass coverslip previously coated with poly-D-lysine. The coverslip was mounted in a closed small-volume imaging chamber (Warner Instruments) and perifused with the HEPES-buffered solution containing the stimuli. Resorufin fluorescence was excited at 510 nm, and the emission recorded at 590 nm using the same imaging system used to measure [Ca^2+]i (see above).

[9] = test system: isolated human islet cells; experiment: whole-cell patch clamp recordings of dispersed human islet cells; type: cell-based; conditions: NBQX 10 μM; kainate 100 μM
Description: Membrane currents were measured using whole-cell patch clamp recordings of dispersed human islet cells. All recordings were amplified using an EPC10 patch-clamp amplifier and digitized and analyzed using Patchmaster software (Heka Elektronik, Lambrecht, Germany). Pipettes were pulled from borosilicate glass capillaries on a horizontal programmable puller (DMZ Universal Puller, Zeitz-Instrumente, Augsburg, Germany). Pipettes with a resistance of 5-7 MΩ were filled with a pipette solution containing (in mM): 150 NMG (N-methyl-D-Glucamine), 10 EGTA, 1 MgCl2, 2 CaCl2, 5 HEPES and 3 Mg-ATP (pH 7.15). The bath solution contained (in mM): 138 NaCl, 5.6 KCl, 1.2 MgCl2, 2.6 CaCl2, 5 HEPES and 10 TEA (pH7.4). Cells were voltage-clamped at −70 mV. Ligands (e.g. kainate) were applied using the SF-77B Perfusion Fast-Step system (Warner Instruments, Hamden, Conn.), which allows rapid change of solutions bathing a single cell or membrane patch attached to a patch electrode. […] Thus, it is most likely that cells responding to kainate in our electrophysiological experiments were α-cells.

mice [10] = type: in vivo, mouse; conditions: NBQX 20 mg/kg i.p.
Description: as §1
In initial experiments, mice were injected with insulin (1.5 U/kg; i.p.) to induce hypoglycemia.

mice [11] = experiment: hyperinsulinemic-hypoglycemic clamp in conscious mice; type: in vivo, mouse; conditions: NBQX 10 mg/kg iv versus saline
Description: To provide a standardized hypoglycemic stimulus we further conducted studies using the hyperinsulinemic-hypoglycemic clamp. At least 4 days before the experiments, mice were anesthetized with isoflurane, and an indwelling catheter was inserted in the left jugular vein and externalized through an incision in a skin flap behind the head. Mice were fasted for 4 hours and placed in individual plastic containers for tail cut sampling. […] A priming dose of insulin (100 mU/kg) was administered, followed by a constant infusion rate of 20 mU/kg/min (Actrapid, Novo Nordisk). The plasma glucose concentration was determined at 10 min intervals using a One Touch Ultra glucose meter. Glucose (30%) was infused at a variable rate to maintain the plasma glucose concentration at the hypoglycemic levels (˜3 mM). At time 50 min, a hyperinsulinemic-hypoglycemic clamp was achieved. Blood glucose levels were kept at the steady state (3 mM) and NBQX was administered as a bolus (10 mg/kg) at time 60 min, followed by infusion (10 mg/kg) until the end of the experiment. A control experiment was performed using saline (0.9% NaCl) following the same protocol used for NBQX. […] Animals were euthanized by an over-dose of pentobarbital.

mouse islets [12] = experiment: perifusion of mouse islets with β cells destroyed by streptozotocin versus intact islets; type: cell-based; conditions: arginine 5 mM; streptozotocin-treated versus intact islets
Description: This experiment was performed with mouse islets. Two samples were perifused in parallel (“a” and “b”). In “a” (blue curve and blue bar), but not in “b” (red curve and red bar) the β cells were selectively destroyed with streptozotocin. This absence of β cells generates type 1 diabetes-like condition in vitro. The glucagon release profile in panel “A” was obtained by using this model. […] Note that the non specific stimulus arginine is not able to differentiate a functionally impaired α cell in the absence of β cells.
At t=5 min, both samples were stimulated with 100 μM kainate for 5 min. The glucose was increased to 11 mM for 10 minutes and decreased again to 3 mM for the duration of the perifusion. At t=45 min, both samples (v) were stimulated with 5 mM Arginine. […] Kainate is a glutamate analog that is not metabolizable, and therefore a preferred agonist of the AMPA/Kainate receptors. Error bars represent the standards deviations for n=3 perifusions. Comparison were performed by an independent t-test.
For example, in some embodiments the present invention are directed to an in vitro model in which we destroy selectively the beta cells with, for example, streptozotocin, thus creating a situation that mimics type 1 diabetes. The treated islets are composed mainly of alpha cells. […] To examine if alpha cells in islets depleted of beta cells had impaired glutamate signaling, we stimulated them with kainate, an agonist for ionotropic glutamate receptors.

NC1(C(=O)O)C[C@H](C(=O)O)[C@H](C(=O)O)C1 (stereo partly shown) [ACPT-1]
effect on basal glucagon secretion or glucagon responses to glutamate (human islets [1]): did not elicit changes in glucagon secretion; also recorded: did not affect basal glucagon secretion or glucagon responses to glutamate
effect on basal or glutamate-induced glucagon secretion (mouse islets [2]; 100 μM): did not affect basal or glutamate-induced glucagon secretion; also recorded: did not elicit changes in glucagon secretion

Cc1o[nH]c(=O)c1CC(N)C(=O)O (stereo not shown) [AMPA]
glucagon release / glucagon secretion (human islets [1]; agonist 100 μM, 3 mM glucose): elicited strong glucagon secretion; also recorded: Increases in glucagon release could also be elicited
glucagon release / secretion (mouse islets [2]; 100 μM): stimulated glucagon secretion
convulsions indicative of central nervous penetration (C57BL/6 mice; AMPA 15 mg/kg i.p.): did not induce convulsions
plasma insulin concentrations (C57BL/6 mice; glutamate 30 mg/kg, AMPA 15 mg/kg, i.p.): not affected; also recorded: did not change
plasma glucagon concentrations (C57BL/6 mice; glutamate 30 mg/kg, AMPA 15 mg/kg, i.p., 30 minutes after treatment): increased plasma glucagon concentrations
plasma glucose concentrations (C57BL/6 mice; glutamate 30 mg/kg, AMPA 15 mg/kg, i.p., thirty minutes after injection): increased glucose levels; also recorded: increased plasma glucose concentrations
insulin release (human islets [3]): Neither kainate (100 μM), glutamate (100 μM), nor AMPA (100 μM) stimulated increases in insulin release
insulin release (monkey islets [4]): Neither kainate (100 μM), glutamate (100 μM), nor AMPA (100 μM) stimulated increases in insulin release

N#Cc1cc2[nH]c(=O)c(=O)[nH]c2cc1[N+](=O)[O-] [CNQX]
block of glutamate-induced glucagon responses (human islets [1]; CNQX 10 μM): could be blocked
block of [Ca^2+]i responses to glutamate [5]: could be blocked
inhibition of [Ca^2+]i responses to kainate [6]: inhibited; also recorded: blocked
inhibition of glucagon response to lowering glucose from 6 mM to 1 mM (human islets [7]): 54%

NC(C(=O)O)(c1ccc(P(=O)(O)O)cc1)C1CC1 (stereo not shown) [CPPG]
effect on basal glucagon secretion or glucagon responses to glutamate (human islets [1]): did not affect the glutamate-induced glucagon response; also recorded: did not affect basal glucagon secretion or glucagon responses to glutamate
effect on basal or glutamate-induced glucagon secretion (mouse islets [2]; 100 μM): did not affect basal or glutamate-induced glucagon secretion; also recorded: did not affect the glutamate-induced glucagon response

O=[N+]([O-])c1cc2nc(O)c(O)nc2cc1[N+](=O)[O-] [DNQX]
block of glutamate-stimulated glucagon release (mouse islets [2]; DNQX 10 μM, glutamate 100 μM): blocked

[Cl-].[K+] [KCl]
glutamate release (resorufin fluorescence) (monkey islets [8]): induced significant glutamate release; also recorded: elicited large increases in glutamate release

[La+3] [La^3+]
kainate-stimulated glucagon secretion in presence of Ca^2+ channel blockers (human islets [1]): strongly diminished
inhibition of [Ca^2+]i responses to kainate [6]: inhibited; also recorded: abolished

NS(=O)(=O)c1cccc2c1c([N+](=O)[O-])cc1nc(O)c(O)nc12 [NBQX]
block of kainate-evoked inward currents [9]: could be blocked
sedation (mice [10]): did not cause sedation
insulin-induced drop in glucose plasma levels (mice [10]; insulin 1.5 U/kg i.p., not shown): increased the insulin-induced drop in glucose plasma levels
glucose infusion rate needed to maintain glycemia (~3 mM) (mice [11]): needed larger infusion rates of glucose; also recorded: significantly larger
plasma glucagon / glucagon secretion in response to hypoglycemia (mice [11]): lower; also recorded: significantly diminished

N=C(N)NCCC[C@H](N)C(=O)O [arginine]
arginine-induced glucagon release in absence versus presence of β cells (mouse islets [12]): not statistically different

COC(=O)C1=C(C)NC(C)=C(C(=O)OC)C1c1ccccc1[N+](=O)[O-] [nifedipine]
reduction of kainate-induced [Ca^2+]i responses [6]: ~60%

N[C@@]1(C(=O)O)CC[C@@H](C(=O)O)C1 [trans-ACPD]
effect on basal glucagon secretion or glucagon responses to glutamate (human islets [1]): did not affect basal glucagon secretion or glucagon responses to glutamate
effect on basal glucagon secretion or glucagon responses to glutamate (human islets [1]; listed as tACPD): did not elicit changes in glucagon secretion
effect on basal or glutamate-induced glucagon secretion (mouse islets [2]; 100 μM): did not affect basal or glutamate-induced glucagon secretion
effect on basal or glutamate-induced glucagon secretion (mouse islets [2]; 100 μM, listed as tACPD): did not elicit changes in glucagon secretion
